Drawing on patent US7378375B1, “Substituted pyridine herbicides” (Syngenta Crop Protection, Inc., priority 2000, dated 2008), this text covers melting point for three compounds.

SMILES strings stand for the structures.

For the compound `O=C(C1=C(O)C2CCC(C2)C1=O)c1ccc(C(F)(F)F)nc1COC1COC1` (stereo not drawn) [1.065], the melting point (commonly the temperature, or range, at which the solid turns liquid) was 102 to 105 °C. For `COCCOCc1nc(C(F)(F)F)ccc1C(=O)C1=C(O)CC(C)CC1=O` (stereo not drawn) [1.082] the value was 76 to 78 °C. For `CC1(C)C(=O)C(C(=O)c2ccc(C(F)(F)F)nc2COCc2ccccc2)C(=O)C(C)(C)C1=O` [1.076] the value was 75 to 76 °C.
